Reference: US20230295118A1 (EnhancedBio Inc., priority 2022, published 2023)

What was measured:
Type in all cases: cell-based
CDK6 = biological target: T1, CDK6 (Homo sapiens, UniProt Q00534); test: CDK6 degradation (DC50, Dmax)
T1 construct: endogenous in cells

[1] = test system: mantle cell lymphoma cell (Mino or JeKo-1); test: Antiproliferative effect, MTS cell viability assay; settings: 72 h, mantle cell lymphoma cell (Mino or JeKo-1), MTS assay, read-out: IC50 (anti-proliferation)
How it was run: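 MTS read-out (formazan absorbance at 490 nm) after 72 h exposure of Mino cells to 0–1 μM compound (0.0001, 0.001, 0.01, 0.1, 1 μM). Palbociclib and abemaciclib served as positive controls.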

CDK4 = biological target: T2, CDK4 (Homo sapiens, UniProt P11802); test: CDK4 degradation (DC50, Dmax)
T2 construct: endogenous in cells
T2 sequence (P11802 whole entry): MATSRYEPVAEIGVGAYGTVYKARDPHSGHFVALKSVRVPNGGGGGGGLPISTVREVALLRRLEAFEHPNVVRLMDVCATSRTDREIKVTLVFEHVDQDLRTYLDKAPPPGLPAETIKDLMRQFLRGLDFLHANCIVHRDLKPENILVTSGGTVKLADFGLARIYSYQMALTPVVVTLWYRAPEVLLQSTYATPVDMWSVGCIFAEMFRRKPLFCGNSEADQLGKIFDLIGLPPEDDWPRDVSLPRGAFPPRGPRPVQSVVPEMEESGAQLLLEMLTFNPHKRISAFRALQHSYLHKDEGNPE

T1 sequence (Q00534 whole entry): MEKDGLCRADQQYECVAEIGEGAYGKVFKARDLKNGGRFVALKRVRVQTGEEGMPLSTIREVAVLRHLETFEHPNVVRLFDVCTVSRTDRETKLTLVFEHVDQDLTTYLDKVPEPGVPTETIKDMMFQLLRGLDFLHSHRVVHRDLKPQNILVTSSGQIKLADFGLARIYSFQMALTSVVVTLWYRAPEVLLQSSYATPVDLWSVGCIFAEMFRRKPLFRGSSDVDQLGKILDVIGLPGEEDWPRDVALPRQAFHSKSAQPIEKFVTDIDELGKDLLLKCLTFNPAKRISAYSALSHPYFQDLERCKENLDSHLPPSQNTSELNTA

| DC50 (CDK6) | Dmax (CDK6) | IC50 [1] | DC50 (CDK4) | Dmax (CDK4) | SMILES |
| --- | --- | --- | --- | --- | --- |
| 50 to 200 nM | > 80% | < 50 nM | 50 to 200 nM | > 80% | CC(=O)c1c(C)c2cnc(Nc3ccc(N4CCN(CC5CN(c6ccc(C(=O)NC7CCC(=O)NC7=O)cc6)C5)CC4)cn3)nc2n(C2CCCC2)c1=O (stereo not shown) [Compound 119, 4-(3-((4-(6-((6-acetyl-8-cyclopentyl-5-methyl-7-oxo-7,8-dihydropyrido[2,3-d]pyrimidin-2-yl)amino)pyridin-3-yl)piperazin-1-yl)methyl)azetidin-1-yl)-N-(2,6-dioxopiperidin-3-yl)benzamide] |
| 50 to 200 nM | > 80% | < 50 nM | < 50 nM | > 80% | CC(=O)c1c(C)c2cnc(Nc3ccc(N4CCN(CC5CN(c6ccc(NC7CCC(=O)NC7=O)cc6)C5)CC4)cn3)nc2n(C2CCCC2)c1=O (stereo not shown) [Compound 120, 3-((4-(3-((4-(6-((6-acetyl-8-cyclopentyl-5-methyl-7-oxo-7,8-dihydropyrido[2,3-d]pyrimidin-2-yl)amino)pyridin-3-yl)piperazin-1-yl)methyl)azetidin-1-yl)phenyl)amino) piperidine-2,6-dione] |
| < 50 nM | > 80% | < 50 nM | < 50 nM | > 80% | CC(=O)c1c(C)c2cnc(Nc3ccc(N4CCN(C(=O)C5CN(c6ccc7c(c6)C(=O)N(C6CCC(=O)NC6=O)C7=O)C5)CC4)cn3)nc2n(C2CCCC2)c1=O (stereo not shown) [Compound 121, 5-(3-(4-(6-((6-acetyl-8-cyclopentyl-5-methyl-7-oxo-7,8-dihydropyrido[2,3-d]pyrimidin-2-yl)amino)pyridin-3-yl)piperazine-1-carbonyl)azetidin-1-yl)-2-(2,6-dioxopiperidin-3-yl)isoindoline-1,3-dione] |
| < 50 nM | > 80% | < 50 nM | < 50 nM | > 80% | CC(=O)c1c(C)c2cnc(Nc3ccc(N4CCN(C(=O)C5CN(c6ccc7c(c6)CN(C6CCC(=O)NC6=O)C7=O)C5)CC4)cn3)nc2n(C2CCCC2)c1=O (stereo not shown) [Compound 122, 3-(5-(3-(4-(6-((6-acetyl-8-cyclopentyl-5-methyl-7-oxo-7,8-dihydropyrido[2,3-d]pyrimidin-2-yl)amino)pyridin-3-yl)piperazine-1-carbonyl)azetidin-1-yl)-1-oxoisoindolin-2-yl) piperidine-2,6-dione] |
| < 50 nM | > 60% | < 50 nM | < 50 nM | > 60% | CC(=O)c1c(C)c2cnc(Nc3ccc(N4CCN(C(=O)C5CN(c6ccc(C(=O)NC7CCC(=O)NC7=O)cc6)C5)CC4)cn3)nc2n(C2CCCC2)c1=O (stereo not shown) [Compound 123, 4-(3-(4-(6-((6-acetyl-8-cyclopentyl-5-methyl-7-oxo-7,8-dihydropyrido[2,3-d]pyrimidin-2-yl)amino)pyridin-3-yl)piperazine-1-carbonyl)azetidin-1-yl)-N-(2,6-dioxopiperidin-3-yl)benzamide] |
| 50 to 200 nM | > 60% | < 50 nM | 50 to 200 nM | > 80% | CC(=O)c1c(C)c2cnc(Nc3ccc(N4CCN(C(=O)C5CN(c6ccc(NC7CCC(=O)NC7=O)cc6)C5)CC4)cn3)nc2n(C2CCCC2)c1=O (stereo not shown) [Compound 124, 3-((4-(3-(4-(6-((6-acetyl-8-cyclopentyl-5-methyl-7-oxo-7,8-dihydropyrido[2,3-d]pyrimidin-2-yl)amino)pyridin-3-yl)piperazine-1-carbonyl)azetidin-1-yl)phenyl)amino) piperidine-2,6-dione] |
| < 50 nM | > 80% | < 50 nM | < 50 nM | > 80% | CC(=O)c1c(C)c2cnc(Nc3ccc(C4CCN(CC5CN(c6ccc7c(c6)C(=O)N(C6CCC(=O)NC6=O)C7=O)C5)CC4)cn3)nc2n(C2CCCC2)c1=O (stereo not shown) [Compound 125, 5-(3-((4-(6-((6-acetyl-8-cyclopentyl-5-methyl-7-oxo-7,8-dihydropyrido[2,3-d]pyrimidin-2-yl)amino)pyridin-3-yl)piperidin-1-yl)methyl)azetidin-1-yl)-2-(2,6-dioxopiperidin-3-yl)isoindoline-1,3-dione] |
| < 50 nM | > 80% | < 50 nM | < 50 nM | > 80% | CC(=O)c1c(C)c2cnc(Nc3ccc(C4CCN(CC5CN(c6ccc7c(c6)CN(C6CCC(=O)NC6=O)C7=O)C5)CC4)cn3)nc2n(C2CCCC2)c1=O (stereo not shown) [Compound 126, 3-(5-(3-((4-(6-((6-acetyl-8-cyclopentyl-5-methyl-7-oxo-7,8-dihydropyrido[2,3-d]pyrimidin-2-yl)amino)pyridin-3-yl)piperidin-1-yl)methyl)azetidin-1-yl)-1-oxoisoindolin-2-yl) piperidine-2,6-dione] |
| 50 to 200 nM | > 80% | < 50 nM | 50 to 200 nM | > 80% | CC(=O)c1c(C)c2cnc(Nc3ccc(C4CCN(CC5CN(c6ccc(C(=O)NC7CCC(=O)NC7=O)cc6)C5)CC4)cn3)nc2n(C2CCCC2)c1=O (stereo not shown) [Compound 127, 4-(3-((4-(6-((6-acetyl-8-cyclopentyl-5-methyl-7-oxo-7,8-dihydropyrido[2,3-d]pyrimidin-2-yl)amino)pyridin-3-yl)piperidin-1-y)methyl)azetidin-1-yl)-N-(2,6-dioxopiperidin-3-yl)benzamide] |
| < 50 nM | > 80% | < 50 nM | < 50 nM | > 80% | CC(=O)c1c(C)c2cnc(Nc3ccc(C4CCN(CC5CN(c6ccc(NC7CCC(=O)NC7=O)cc6)C5)CC4)cn3)nc2n(C2CCCC2)c1=O (stereo not shown) [Compound 128, 3-((4-(3-((4-(6-((6-acetyl-8-cyclopentyl-5-methyl-7-oxo-7,8-dihydropyrido[2,3-d]pyrimidin-2-yl)amino)pyridin-3-yl)piperidin-1-yl)methyl)azetidin-1-yl)phenyl)amino) piperidine-2,6-dione] |
| 50 to 200 nM | > 80% | 50 to 200 nM | 50 to 200 nM | > 80% | CC(=O)c1c(C)c2cnc(Nc3ccc(C4CCN(C(=O)C5CN(c6ccc7c(c6)C(=O)N(C6CCC(=O)NC6=O)C7=O)C5)CC4)cn3)nc2n(C2CCCC2)c1=O (stereo not shown) [Compound 129, 5-(3-(4-(6-((6-acetyl-8-cyclopentyl-5-methyl-7-oxo-7,8-dihydropyrido[2,3-d]pyrimidin-2-yl)amino)pyridin-3-yl)piperidine-1-carbonyl)azetidin-1-yl)-2-(2,6-dioxopiperidin-3-yl)isoindoline-1,3-dione] |
| < 50 nM | > 60% | < 50 nM | 50 to 200 nM | > 80% | CC(=O)c1c(C)c2cnc(Nc3ccc(C4CCN(C(=O)C5CN(c6ccc7c(c6)CN(C6CCC(=O)NC6=O)C7=O)C5)CC4)cn3)nc2n(C2CCCC2)c1=O (stereo not shown) [Compound 130, 3-(5-(3-(4-(6-((6-acetyl-8-cyclopentyl-5-methyl-7-oxo-7,8-dihydropyrido[2,3-d]pyrimidin-2-yl)amino)pyridin-3-yl)piperidine-1-carbonyl)azetidin-1-yl)-1-oxoisoindolin-2-yl)piperidine-2,6-dione] |
| 50 to 200 nM | > 60% | 50 to 200 nM | 50 to 200 nM | > 60% | CC(=O)c1c(C)c2cnc(Nc3ccc(C4CCN(C(=O)C5CN(c6ccc(C(=O)NC7CCC(=O)NC7=O)cc6)C5)CC4)cn3)nc2n(C2CCCC2)c1=O (stereo not shown) [Compound 131, 4-(3-(4-(6-((6-acetyl-8-cyclopentyl-5-methyl-7-oxo-7,8-dihydropyrido[2,3-d]pyrimidin-2-yl)amino)pyridin-3-yl)piperidine-1-carbonyl)azetidin-1-yl)-N-(2,6-dioxopiperidin-3-yl)benzamide] |
| < 50 nM | > 80% | < 50 nM | 50 to 200 nM | > 80% | CC(=O)c1c(C)c2cnc(Nc3ccc(C4CCN(C(=O)C5CN(c6ccc(NC7CCC(=O)NC7=O)cc6)C5)CC4)cn3)nc2n(C2CCCC2)c1=O (stereo not shown) [Compound 132, 3-((4-(3-(4-(6-((6-acetyl-8-cyclopentyl-5-methyl-7-oxo-7,8-dibydropyrido[2,3-d]pyrimidin-2-yl)amino)pyridin-3-yl)piperidine-1-carbonyl)azetidin-1-yl)phenyl)amino) piperidine-2,6-dione] |
| < 50 nM | > 80% | < 50 nM | < 50 nM | > 80% | Cc1nc2c(F)cc(-c3nc(Nc4ccc(CN5CCN(CC6CN(c7ccc(C(=O)NC8CCC(=O)NC8=O)cc7)C6)CC5)cn4)ncc3F)cc2n1C(C)C (stereo not shown) [Compound 133, N-(2,6-dioxopiperidin-3-yl)-4-(3-((4-((6-((5-fluoro-4-4-fluoro-1-isopropyl-2-methyl-1H-benzo[d]imidazol-6-yl)pyrimidin-2-ylamino)pyridin-3-yl)methyl)piperazin-1-yl)methyl)azetidin-1-yl)benzamide] |
| < 50 nM | > 80% | < 50 nM | < 50 nM | > 80% | Cc1nc2c(F)cc(-c3nc(Nc4ccc(CN5CCN(CC6CN(c7ccc(NC8CCC(=O)NC8=O)cc7)C6)CC5)cn4)ncc3F)cc2n1C(C)C (stereo not shown) [Compound 134] |
| 50 to 200 nM | > 60% | < 50 nM | < 50 nM | > 80% | Cc1nc2c(F)cc(-c3nc(Nc4ccc(CN5CCN(C(=O)C6CN(c7ccc8c(c7)C(=O)N(C7CCC(=O)NC7=O)C8=O)C6)CC5)cn4)ncc3F)cc2n1C(C)C (stereo not shown) [Compound 135, 2-(2,6-dioxopiperidin-3-yl)-5-(3-(4-((6-((5-fluoro-4-(4-fluoro-1-isopropyl-2-methyl-1H-benzo[d]imidazol-6-yl)pyrimidin-2-yl)amino)pyridin-3-yl)methyl)piperazine-1-carbonyl)azetidin-1-yl)isoindoline-1,3-dione] |
